Source: patent US10420836B2, “Methods of immunizing a subject and compositions related thereto” (priority 2015, dated 2019)
Read-outs that look alike come from different tables or passages of the source.

Tests used:
[1] = test system: influenza virus A/Udorn/1972 (H3N2); type: in vivo, mice; conditions: for survival: adjuvant co-administered intradermally with 1 μg HA A/Victoria/210/2009 subunit vaccine; for body weight loss after challenge / signs of disease after challenge: adjuvant with vaccine; for body weight loss after challenge: compared to the other vaccinated groups; for protective immune responses / protective immunity to influenza: used as adjuvant for intradermal influenza vaccination
[2] = test system: A/Victoria/210/2009 subunit influenza vaccine; type: in vivo, mice; conditions: after intradermal vaccination with A/Victoria/210/2009 plus adjuvant
caspase-1 = assay: Preliminary cell-signaling data (inflammasome / caspase-1 activation)
[3] = test system: primary human keratinocytes; type: cell-based; conditions: primary human keratinocytes (unpublished)
[4] = Observation for adverse effects after adjuvanted skin vaccination; type: in vivo; conditions: low doses used for skin vaccination; four months post-adjuvanted vaccination
Text: This modification may improve antigen presentation resulting in protective immunity. […] See Manoury. Proteases: essential actors in processing antigens and intracellular toll-like receptors. Frontiers in immunology 4, 299, (2013). Fullerene is considered as nanoparticle due to its structure that can recruit cells following skin immunization. The toxicity of fullerenes has been reported in Zhang et al., Endocytic mechanisms and toxicity of a functionalized fullerene in human cells. Toxicology letters 191, 149-157, (2009). […] Vaccine adjuvant and vaccine formulations of fullerene derivatives are reported in CN103495164.

Compound | survival ([1]; 4×LD50 A/Udorn/1972 challenge) [%] | body weight loss after challenge [1] | protective immune responses / protective immunity to influenza [1] | Serum IgG2a [2] | signs of disease after challenge [1] | longevity of immune responses ([1]; combined with vaccine, […]) | survival rate ([1]; at three different doses tested (11.9, 119 and 1190 nanomoles) with vaccine, infection with A/Udorn 1972) [%] | caspase-1 activation (caspase-1) | IL-1 beta and TNF-α production [3] | adverse effects [4] | survival ([1]; […]) [%]
O=C(Nc1cc(C(F)(F)F)cc(C(F)(F)F)c1)c1cc(Cl)ccc1O [IMD 0354, N-(3,5-bis-trifluoromethyl-phenyl)-5-chloro-2-hydroxy-benzamide] | 100 | minimal body weight loss | improved protective immunity to influenza | increased |  |  |  |  |  |  | 
CC(C)Cn1cnc2c(N)nc3ccccc3c21 [Imiquimod] |  | lowest body weight loss |  |  | fewer signs of disease | improved |  |  |  |  | 
O=C1c2c(O)cccc2Cc2cccc(O)c21 [anthralin, 1,8-dihydroxy-9,10-dihydroanthracen-9-one] | 80 |  | induces protective immune responses |  | fewer signs of disease |  | ≥ 80 | not activated | large amounts |  | 
c12c3c4c5c1c1c6c7c2c2c8c3c3c9c4c4c%10c5c5c1c1c6c6c%11c7c2c2c7c8c3c3c8c9c4c4c9c%10c5c5c1c1c6c6c%11c2c2c7c3c3c8c4c4c9c5c1c1c6c2c3c41 [fullerene] |  |  | improved protective immune responses |  |  |  |  |  |  | no adverse effects | 80
